Laboratory results from patent publication US12077503B2, “Substituted cyclic amides and their use as herbicides” (FMC CORPORATION, priority 2015, dated 2024).

Experiments:
Assay type in all cases: in vivo
Kochia (Kochia scoparia) [1] = assay: Test A preemergence; settings: Bassia scoparia, pre-emergence, 240 h, preemergence, 0 to 100 scale where 0 is no effect and 100 is complete control, read-out: Kochia plant response rating; for pest or weed control at 125 g/ha: 125 g ai/ha, visual injury rating, approximately 10 d; for pest or weed control at 500 g/ha: 500 g ai/ha
How it was run: (§1)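 Treatment is preemergence as a directed soil spray after planting, or postemergence at the one- to two-leaf stage, with test chemical in a non-phytotoxic solvent mixture plus surfactant. Plants stay in the greenhouse about 10 d before visual injury scoring on a 0 to 100 scale versus untreated controls.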

[2] = system: barnyardgrass (Echinochloa crus-galli); assay: Test A preemergence; settings: Echinochloa crus-galli, pre-emergence, 240 h, preemergence, 0 to 100 scale where 0 is no effect and 100 is complete control, read-out: Barnyardgrass plant response rating; for pest or weed control at 125 g/ha: 125 g ai/ha, visual injury rating, approximately 10 d; for pest or weed control at 500 g/ha: 500 g ai/ha
How it was run: as §1

[3] = system: giant foxtail (Setaria faberii); assay: Test A preemergence; settings: Setaria faberi, pre-emergence, 240 h, preemergence, 0 to 100 scale where 0 is no effect and 100 is complete control, read-out: Foxtail, Giant plant response rating; for pest or weed control at 125 g/ha: 125 g ai/ha, visual injury rating, approximately 10 d; for pest or weed control at 500 g/ha: 500 g ai/ha
How it was run: as §1

[4] = system: pigweed (Amaranthus retroflexus); assay: Test A preemergence; settings: Amaranthus retroflexus, pre-emergence, 240 h, preemergence, 0 to 100 scale where 0 is no effect and 100 is complete control, read-out: Pigweed plant response rating; for pest or weed control at 125 g/ha: 125 g ai/ha, visual injury rating, approximately 10 d; for pest or weed control at 500 g/ha: 500 g ai/ha
[5] = system: ragweed (common ragweed, Ambrosia elatior); assay: Test A preemergence; settings: Ambrosia artemisiifolia, pre-emergence, 240 h, preemergence, 0 to 100 scale where 0 is no effect and 100 is complete control, read-out: Ragweed plant response rating; for pest or weed control at 125 g/ha: 125 g ai/ha, visual injury rating, approximately 10 d; for pest or weed control at 500 g/ha: 500 g ai/ha
How it was run: as §1

[6] = system: ryegrass, Italian (Italian ryegrass, Lolium multiflorum); assay: Test A preemergence; settings: Lolium multiflorum, pre-emergence, 240 h, preemergence, 0 to 100 scale where 0 is no effect and 100 is complete control, read-out: Ryegrass, Italian plant response rating; for pest or weed control at 125 g/ha: 125 g ai/ha, visual injury rating, approximately 10 d; for pest or weed control at 500 g/ha: 500 g ai/ha
How it was run: as §1

[7] = system: Galium (catchweed bedstraw, Galium aparine); assay: Test A postemergence; settings: Galium, post-emergence, 240 h, postemergence; for pest or weed control at 125 g/ha: 125 g ai/ha, visual injury vs untreated controls after approx. 10 d, 0 = no effect, 100 = complete control, read-out: Galium plant response rating (0 to 100 scale); for pest or weed control at 500 g/ha: 500 g ai/ha, 0 to 100 scale, 0 is no effect, 100 is complete control, read-out: Galium plant response rating
How it was run: as §1

Kochia (Kochia scoparia) [8] = assay: Test A postemergence; settings: Bassia scoparia, post-emergence, 240 h, postemergence; for pest or weed control at 125 g/ha: 125 g ai/ha, visual injury vs untreated controls after approx. 10 d, 0 = no effect, 100 = complete control, read-out: Kochia plant response rating (0 to 100 scale); for pest or weed control at 500 g/ha: 500 g ai/ha, 0 to 100 scale, 0 is no effect, 100 is complete control, read-out: Kochia plant response rating
How it was run: as §1

[9] = system: barnyardgrass (Echinochloa crus-galli); assay: Test A postemergence; settings: Echinochloa crus-galli, post-emergence, 240 h, postemergence; for pest or weed control at 125 g/ha: 125 g ai/ha, visual injury vs untreated controls after approx. 10 d, 0 = no effect, 100 = complete control, read-out: Barnyardgrass plant response rating (0 to 100 scale); for pest or weed control at 500 g/ha: 500 g ai/ha, 0 to 100 scale, 0 is no effect, 100 is complete control, read-out: Barnyardgrass plant response rating
How it was run: as §1

[10] = system: blackgrass (Alopecurus myosuroides); assay: Test A postemergence; settings: Alopecurus myosuroides, post-emergence, 240 h, postemergence; for pest or weed control at 125 g/ha: 125 g ai/ha, visual injury vs untreated controls after approx. 10 d, 0 = no effect, 100 = complete control, read-out: Blackgrass plant response rating (0 to 100 scale); for pest or weed control at 500 g/ha: 500 g ai/ha, 0 to 100 scale, 0 is no effect, 100 is complete control, read-out: Blackgrass plant response rating
How it was run: as §1

corn (Zea mays) = assay: Test A postemergence; settings: Zea mays, post-emergence, 240 h, postemergence; for plant injury at 125 g/ha: 125 g ai/ha, visual injury vs untreated controls after approx. 10 d, 0 = no effect, 100 = complete control, read-out: Corn plant response rating (0 to 100 scale); for plant injury at 500 g/ha: 500 g ai/ha, 0 to 100 scale, 0 is no effect, 100 is complete control, read-out: Corn plant response rating
How it was run: as §1

[11] = system: giant foxtail (Setaria faberii); assay: Test A postemergence; settings: Setaria faberi, post-emergence, 240 h, postemergence; for pest or weed control at 125 g/ha: 125 g ai/ha, visual injury vs untreated controls after approx. 10 d, 0 = no effect, 100 = complete control, read-out: Foxtail, Giant plant response rating (0 to 100 scale); for pest or weed control at 500 g/ha: 500 g ai/ha, 0 to 100 scale, 0 is no effect, 100 is complete control, read-out: Foxtail, Giant plant response rating
How it was run: as §1

[12] = system: pigweed (Amaranthus retroflexus); assay: Test A postemergence; settings: Amaranthus retroflexus, post-emergence, 240 h, postemergence; for pest or weed control at 125 g/ha: 125 g ai/ha, visual injury vs untreated controls after approx. 10 d, 0 = no effect, 100 = complete control, read-out: Pigweed plant response rating (0 to 100 scale); for pest or weed control at 500 g/ha: 500 g ai/ha, 0 to 100 scale, 0 is no effect, 100 is complete control, read-out: Pigweed plant response rating
How it was run: as §1

[13] = system: ragweed (common ragweed, Ambrosia elatior); assay: Test A postemergence; settings: Ambrosia artemisiifolia, post-emergence, 240 h, postemergence; for pest or weed control at 125 g/ha: 125 g ai/ha, visual injury vs untreated controls after approx. 10 d, 0 = no effect, 100 = complete control, read-out: Ragweed plant response rating (0 to 100 scale); for pest or weed control at 500 g/ha: 500 g ai/ha, 0 to 100 scale, 0 is no effect, 100 is complete control, read-out: Ragweed plant response rating
How it was run: as §1

[14] = system: ryegrass, Italian (Italian ryegrass, Lolium multiflorum); assay: Test A postemergence; settings: Lolium multiflorum, post-emergence, 240 h, postemergence; for pest or weed control at 125 g/ha: 125 g ai/ha, visual injury vs untreated controls after approx. 10 d, 0 = no effect, 100 = complete control, read-out: Ryegrass, Italian plant response rating (0 to 100 scale); for pest or weed control at 500 g/ha: 500 g ai/ha, 0 to 100 scale, 0 is no effect, 100 is complete control, read-out: Ryegrass, Italian plant response rating
How it was run: as §1

[15] = system: wheat (Triticum aestivum); assay: Test A postemergence; settings: Triticum aestivum, post-emergence, 240 h, postemergence; for plant injury at 125 g/ha: 125 g ai/ha, visual injury vs untreated controls after approx. 10 d, 0 = no effect, 100 = complete control, read-out: Wheat plant response rating (0 to 100 scale); for plant injury at 500 g/ha: 500 g ai/ha, 0 to 100 scale, 0 is no effect, 100 is complete control, read-out: Wheat plant response rating
How it was run: as §1

SMILES | pest or weed control at 125 g/ha (Kochia (Kochia scoparia) [1]) | pest or weed control at 500 g/ha (Kochia (Kochia scoparia) [1]) | pest or weed control at 125 g/ha [2] | pest or weed control at 500 g/ha [2] | pest or weed control at 125 g/ha [3] | pest or weed control at 500 g/ha [3] | pest or weed control at 125 g/ha [4] | pest or weed control at 500 g/ha [4] | pest or weed control at 125 g/ha [5] | pest or weed control at 500 g/ha [5] | pest or weed control at 125 g/ha [6] | pest or weed control at 500 g/ha [6] | pest or weed control at 125 g/ha [7] | pest or weed control at 500 g/ha [7] | pest or weed control at 125 g/ha (Kochia (Kochia scoparia) [8]) | pest or weed control at 500 g/ha (Kochia (Kochia scoparia) [8]) | pest or weed control at 125 g/ha [9] | pest or weed control at 500 g/ha [9] | pest or weed control at 125 g/ha [10] | pest or weed control at 500 g/ha [10] | also measured
N#Cc1ccc([C@H]2CNC(=O)[C@@H]2C(=O)Nc2cccc(F)c2F)cc1 [Compound 1206] | 60% | 100% | 70% | 100% | 80% | 90% | 50% | 90% | 0% | 60% | 0% | 0% | 30% | 50% | 50% | 50% | 70% | 100% | 0% | 0% | plant injury at 125 g/ha (corn (Zea mays)): 0%; plant injury at 500 g/ha (corn (Zea mays)): 0%; pest or weed control at 125 g/ha [11]: 50%; pest or weed control at 500 g/ha [11]: 80%; pest or weed control at 125 g/ha [12]: 0%; pest or weed control at 500 g/ha [12]: 30%; pest or weed control at 125 g/ha [13]: 0%; pest or weed control at 500 g/ha [13]: 0%; pest or weed control at 125 g/ha [14]: 0%; pest or weed control at 500 g/ha [14]: 0%; plant injury at 125 g/ha [15]: 0%; plant injury at 500 g/ha [15]: 0%
CSc1ccccc1NC(=O)[C@H]1C(=O)N(C)C[C@@H]1c1ccc(C#N)cc1 [Compound 1230] | 70% | 90% | 0% | 50% | 40% | 90% | 20% | 30% | 0% | 0% | 0% | 0% | 20% | 60% | 30% | 70% | 30% | 70% | 0% | 0% | plant injury at 125 g/ha (corn (Zea mays)): 0%; plant injury at 500 g/ha (corn (Zea mays)): 0%; pest or weed control at 125 g/ha [11]: 60%; pest or weed control at 500 g/ha [11]: 80%; pest or weed control at 125 g/ha [12]: 30%; pest or weed control at 500 g/ha [12]: 60%; pest or weed control at 125 g/ha [13]: 0%; pest or weed control at 500 g/ha [13]: 0%; pest or weed control at 125 g/ha [14]: 0%; pest or weed control at 500 g/ha [14]: 0%; plant injury at 125 g/ha [15]: 0%; plant injury at 500 g/ha [15]: 0%
